Converted amounts (≈) assume the structure as drawn. “Also recorded” adds a separate entry of the source.
Columns and labels:
erythrocytes = conditions: cited from earlier work
[1] = i.p., 2.5% carboxymethylcellulose in water; cited from earlier work
[2] = Stability of busulfan formulations on storage / after mixing; assay type: physicochemical
Method: Stability of the Various Busulfan Formulations. The physical and chemical stabilities of the various parenteral busulfan formulations were examined as follows: First, busulfan was dissolved at a concentration of 25 mg/ml in DMA only ("stock solution") and incubated at 4° C. at 22° C. and at 40°C. Starting at time zero, then weekly up to 10 weeks, samples were withdrawn and analyzed for busulfan concentration by HPLC. Second, the busulfan-DMA was diluted with PEG-400/water to give final concentrations of DMA:PEG-400:water of 20:40:40 and final busulfan concentrations of 2-10 mg/ml. These formulations were subsequently analyzed by HPLC immediately after mixing and then hourly for eight hours. Third, busulfan formulation mixtures were diluted in normal saline to a final busulfan concentration of 1 mg/ml. The preparations were then introduced into infusion bags (Viaflex™ Baxter Healthcare Corp Deerfield, Id.), and allowed to run through a parenteral infusion set at a rate of 1 ml/min. Samples were collected at 0, 0.5, 1.0, 2.0, 5.0, 7.0, 9.0, and 12 hours and analyzed for busulfan by HPLC as above.
The drug was first dissolved in DMA at 25 mg/ml. Different aliquots were stored at 4° C., at 22° C., and at 40°C. From time 0 and then weekly, samples were analyzed for busulfan drug degradation over at least 15 weeks of observation. […] The stability of busulfan in the complete 20% DMA/40% PEG-400/40% water was also studied for the following different busulfan concentrations, 2, 3, 5, 8, and 10 mg/ml. At 2 and 3 mg/ml the busulfan was stable for the duration of the 8 hour observation period in this solvent system.

[3] = Solubility of busulfan in various solvent systems (HPLC); assay type: physicochemical; conditions: acetone, organic solvent or mixture
Method: A known amount of busulfan was equilibrated in the solvent system at 20°C. for predetermined periods of time. An aliquot was then removed and subjected to HPLC assay after an appropriate dilution for determining busulfan concentration and stability.
The derivatized product was separated from the reaction mixture using Sep-Pak™ C 18 solid phase extraction vials (Waters Chromatography Systems Inc., Millford, Mass.).

human erythrocytes = experiment: Hemolysis studies; assay type: cell-based; conditions: in words
Method: The procedure of Reed and Yalkowsky was employed for the studies of hemolytic potential of the different preparations, and the LD50 values of the various formulations were evaluated (Reed et al., 1985).
Variable amounts of whole blood (citrated) were added to 0.05 ml of the drug formulations in ratios of 1:1 (v/v), 1:3, 1:5, 1:7, and 1:9. The mixtures were vortexed for 10 seconds and then incubated for 2 minutes at 25°C. Five ml normal saline was then added to this blend to quench further lysis of the erythrocytes by rendering the preparation nearly isotonic. The mixture was again vortexed for 10 seconds and centrifuged for 5 minutes at 3,000 r.p.m. (Beckman Model TJ-6 Centrifuge, Beckman Instruments Inc., Palo Alto, Calif.). The supernatant was carefully aspirated and discarded. The packed erythrocytes were washed once more at room temperature with one volume of normal saline. After centrifugation, the supernatant was again carefully aspirated and discarded. […] The absorbance of the supernatant was subsequently measured at 540 nm after a 1:3 dilution with distilled water° Normal saline was assayed in parallel as a standard. The fraction of […] was defined as the absorbance reading of the respective drug formulation divided by that of the saline standards (Reed et al., 1985).
The hemolytic potential of the various busulfan formulations was evaluated. […]

[4] = i.p., cited from earlier work
[5] = Equilibrium solubility studies; assay type: physicochemical; conditions: anhydrous dma, organic solvent or mixture
Method: An excess amount of busulfan was added to each solution and the mixtures were placed on a rotating mixer (Tube Rotator™, Scientific Equipment Products, Baltimore, Md.). […] For the DMA/PEG-400 aqueous vehicle, a slightly modified approach had to be taken, since DMA readily dissolved the ACRO LC 25 filter. After dissolving the busulfan in DMA, the busulfan-DMA solution was mixed with 40% PEG-400/40% water and filtered through a 0.45 μm silver filter (Nuclepore Corp., Pleasanton, Calif.) fitted to a syringe assembly. After derivatization with DDTC, the busulfan concentration was determined by HPLC as above.

[6] = Plasma pharmacokinetics of busulfan, oral tablet, oral solution and i.v. solution; assay type: in vivo, Sprague-Dawley rats; conditions: in words
Source text: The present example provides the development of an efficient technique for extraction of busulfan from blood plasma, adaptation of the HPLC assay for quantitation of busulfan in the plasma extract, and studies of the in vivo plasma pharmacokinetics of busulfan when administered orally as the commercially available tablet, as an oral solution in a vehicle of 40% PEG-400, and as an intravenous injection when dissolved in a vehicle of 40% PEG-400. A comparison of the plasma pharmacokinetics of busulfan in the rat is also given after i.v. busulfan administration. The drug was dissolved at 3 mg/ml in either acetone or DMSO or the complete 20% DMA/40% PEG-400 aqueous solvent.
Rat plasma (0.2 ml) was spiked with varying concentrations of busulfan (from a stock solution in DMA), to give final drug concentrations of 0.15-3.0 μg/ml. The internal standard, 20 μl, (CGA-112913; in methanol, 20 μg/ml) was then added to the drug-plasma mixtures. After vortexing for 10 seconds, the drug and internal standard were precipitated from the plasma proteins with 0.2 ml acetonitrile with subsequent vortexing for 30 seconds. The busulfan and internal standard were then extracted using 2 ml of ethyl acetate and vortexed for 1 minute. The solutions were centrifuged for 10 minutes and 1 ml of the ethyl acetate layer was evaporated to dryness under compressed air. The busulfan and internal standard were then dissolved in 0.5 ml of distilled water and derivatized with 0.2 ml of an 8.2% (w/v) solution of diethyldithiocarbamic acid sodium and vortexed for 30 seconds.
The busulfan derivative, DDCB (Diethyldithiocarbamoyl butane), was subjected to solid phase extraction with Sep-Pak LC™ cartridges (Millipore Corporation, Bedford, Ill.) under vacuum. The cartridges were conditioned with three 1-ml washes of methanol followed by two 1-ml washes with distilled water. The derivatized solutions were then passed through the cartridges and the cartridges washed twice with 1 ml 50% methanol in distilled water. The DDCB and the internal standard were eluted from the columns using 250-μ1 methanol twice, followed by two washes of 0.5-ml of ethyl acetate. […]

[7] = cited from earlier work
[8] = room temperature; cited from earlier work
[9] = tested on: human KBM-3 myeloid leukemia cells; experiment: In vitro cytotoxicity, MTT assay; assay type: cell-based; conditions: for cells killed: 24 hours, 37° C.
Method: In vitro Cytotoxicity of Busulfan in the DMA/PEG-400 Vehicle. Human leukemic KBM-3 cells (Anderson, et al., 1992), were incubated for 24 hours in the complete vehicle without the addition of busulfan at different concentrations (0.5%, 1.0%, 2.0%, 3.0% and […], v/v), to assay the cytotoxic properties of the 20% DMA/40% PEG-400 aqueous vehicle by itself (negative controls), or with the addition of busulfan. In parallel, cells in Iscove's modified Dulbecco medium (GIBCO, Grand Island, New York, N.Y.), supplemented with 10% fetal bovine serum, were incubated with busulfan (at 25 μg/ml and 50 μg/ml), in the 20% DMA/40% PEG-400 aqueous solvent (the resulting vehicle concentrations were 1.0 and 2.0% (v/v), respectively), or with busulfan dissolved in a small volume (≤1%, v/v) of acetone (positive controls). After 24 hours, 25 μl of a 5 mg/ml solution of MTT (3, [4,5-dimethylthiazol-2-yl]2,5-diphenyltetrazoliumbromide, obtained from Sigma Chemicals, St. Louis, MO), was added to each sample, and after an additional 2 hours of incubation at 37° C., 100 μl of extraction buffer was added (extraction buffer: 20% (w/v) SDS dissolved to saturation at 37° C. in a solution of equal parts of dimethylformamide and deionized water; the pH was adjusted to 4.7 by the use of acetic acid and 1 N HCL as described (Hansen et al., 1989). After over night incubation at 37° C., the optical densities at 570 nm were measured using a Titer-Tech 96-well multi-scanner, using the extraction buffer as the blank. The cytotoxicity was determined as the difference between the samples as above and the reactivity of cells incubated in PBS alone. All determinations were performed in triplicate.
To study the cytotoxic activity of busulfan in the 20% DMA/40% PEG-400 aqueous vehicle, human KBM-3 myeloid leukemia cells (Andersson et al., 1992), were exposed to either the complete vehicle at various concentrations without or with the addition of busulfan for 24 hours at 37° C. The cytotoxicity was assayed with the MTT assay (Hansen et al., 1989). […]

cyclodextrins
hemolysis LD50 (erythrocytes; Yoshida et al., 1988): about 2 % (w/v)

CS(=O)(=O)OCCCCOS(C)(=O)=O [busulfan, 1,4-bis-(methanesulfonoxyl)butane]
local toxicity of intraperitoneal injection [1]: causes significant local tissue damage | onset of degradation ([2]; 25 mg/ml in DMA, 40° C.): around 3 weeks | degradation at 15 weeks ([2]; 25 mg/ml in DMA, 40° C., 15 weeks, 151200 min): about 50% | stability in DMSO ([2]; DMSO, in words): rapidly degrades busulfan | solubility [3]: 25 mg/mL (≈ 101 mM) | contribution of busulfan to hemolysis (human erythrocytes): did not add significantly to the overall hemolytic effect; also recorded: insignificant | platelet dysfunction ([4]; in polyethyleneglycol, 60 mg/kg): induce platelet dysfunction | toxicity of intraperitoneal administration [4]: very toxic and causes significant local tissue damage | solubility [5]: 75 mg/mL (≈ 304 mM) | hemolysis by busulfan itself (erythrocytes; Bishop et al., 1986): shown to cause hemolysis | absorption, non-fasting vs fasting animals ([6]; oral): non-fasting animals seem to absorb more drug than fasting subjects | bioavailability / plasma concentrations vs oral preparations ([6]; parenteral vs oral): higher after parenteral administration than after oral dosing | AUC, parenteral vs standard tablet in non-fasting animals ([6]; ratio): about five times higher | peak plasma concentration, parenteral vs standard tablet in non-fasting animals ([6]; ratio): approximately ten times higher | liver toxicity ([7]; oral, high dose combinations): veno-occlusive disease (VOD) of the liver, leading to fatal liver failure | neurological and gastrointestinal side effects ([7]; oral, high dose): grand mal seizures and severe nausea and vomiting | myelosuppression ([7]; prolonged administration): occasionally severe, sometimes even irreversible myelosuppression | solubility in water [8]: 25 µg/mL (≈ 0.101 mM) | cytotoxic activity in vehicle ([9]; 20% DMA/40% PEG-400 aqueous vehicle vs acetone, in words): retained its cytotoxic activity | cells killed ([9]; busulfan 25 μg/ml in 20% DMA/40% PEG-400 aqueous vehicle): about 50% | cells killed ([9]; busulfan 50 μg/ml in 20% DMA/40% PEG-400 aqueous vehicle): approximately 80%
